Bounds are passed on as bounds.

The target of the first test is FL-SMARCA4 (Homo sapiens, UniProt P51532). In words: SMARCA4 ATPase activity assay (ADP-Glo, chicken mononucleosome substrate). Conditions: FL-SMARCA4 IC50, Table 3.2; ATPase assay, enzyme 5 nM, ATP 250 uM, chicken mononucleosome 10 nM, 30 min preincubation.
FL-SMARCA4, sequence (P51532 whole entry): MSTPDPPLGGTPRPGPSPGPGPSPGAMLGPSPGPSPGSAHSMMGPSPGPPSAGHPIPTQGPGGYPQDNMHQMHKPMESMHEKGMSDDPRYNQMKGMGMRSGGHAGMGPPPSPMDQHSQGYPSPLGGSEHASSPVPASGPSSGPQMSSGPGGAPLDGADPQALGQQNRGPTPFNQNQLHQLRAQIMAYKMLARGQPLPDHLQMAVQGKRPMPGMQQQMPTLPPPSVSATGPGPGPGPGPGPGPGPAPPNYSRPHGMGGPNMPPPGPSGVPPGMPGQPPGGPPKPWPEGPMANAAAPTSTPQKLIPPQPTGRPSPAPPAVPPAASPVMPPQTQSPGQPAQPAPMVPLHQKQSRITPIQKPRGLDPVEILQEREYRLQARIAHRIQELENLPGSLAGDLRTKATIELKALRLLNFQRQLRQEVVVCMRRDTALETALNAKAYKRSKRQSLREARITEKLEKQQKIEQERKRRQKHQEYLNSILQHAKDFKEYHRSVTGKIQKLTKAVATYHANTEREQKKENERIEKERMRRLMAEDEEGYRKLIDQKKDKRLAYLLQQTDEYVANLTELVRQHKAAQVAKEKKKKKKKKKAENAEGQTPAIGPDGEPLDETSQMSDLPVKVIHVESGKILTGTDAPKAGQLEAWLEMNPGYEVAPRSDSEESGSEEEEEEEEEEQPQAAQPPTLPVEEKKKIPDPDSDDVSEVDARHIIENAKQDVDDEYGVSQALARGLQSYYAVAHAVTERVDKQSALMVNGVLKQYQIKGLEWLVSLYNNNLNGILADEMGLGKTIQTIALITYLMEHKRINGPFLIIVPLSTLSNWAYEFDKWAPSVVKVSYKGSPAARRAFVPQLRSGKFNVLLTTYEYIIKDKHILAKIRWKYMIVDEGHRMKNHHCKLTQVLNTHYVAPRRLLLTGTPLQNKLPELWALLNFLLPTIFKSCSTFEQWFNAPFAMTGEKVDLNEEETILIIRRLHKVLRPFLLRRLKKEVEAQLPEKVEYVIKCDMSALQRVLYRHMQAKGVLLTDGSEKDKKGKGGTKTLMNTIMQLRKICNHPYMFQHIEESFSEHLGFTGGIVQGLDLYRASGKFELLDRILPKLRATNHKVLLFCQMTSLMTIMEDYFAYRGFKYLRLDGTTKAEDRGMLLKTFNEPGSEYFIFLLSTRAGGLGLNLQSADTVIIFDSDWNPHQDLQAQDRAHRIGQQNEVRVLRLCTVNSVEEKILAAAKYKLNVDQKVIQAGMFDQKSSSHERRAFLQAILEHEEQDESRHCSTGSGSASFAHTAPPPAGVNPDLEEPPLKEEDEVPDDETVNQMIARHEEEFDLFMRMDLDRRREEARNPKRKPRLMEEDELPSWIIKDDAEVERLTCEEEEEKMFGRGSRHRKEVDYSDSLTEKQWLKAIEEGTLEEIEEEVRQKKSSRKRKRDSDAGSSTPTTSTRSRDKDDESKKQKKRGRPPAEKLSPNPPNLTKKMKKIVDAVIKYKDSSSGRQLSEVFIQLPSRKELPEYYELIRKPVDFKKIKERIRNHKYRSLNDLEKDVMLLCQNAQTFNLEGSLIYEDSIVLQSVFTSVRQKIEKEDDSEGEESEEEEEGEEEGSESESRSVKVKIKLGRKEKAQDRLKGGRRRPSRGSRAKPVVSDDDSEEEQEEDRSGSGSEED
Compound `CCn1nc(C(=O)Nc2ccc(=O)n(CC)c2)cc1C` [Compound 32] gave an IC50 greater than 50 µM.

`O=C(Nc1cc(F)c(=O)n(CC(F)F)c1)c1cc(C#Cc2cccnc2)c(Cl)s1` [Compound 329] had an IC50 of 0.111 µM.

Regarding `O=C(Nc1cc(F)c(=O)n(CCF)c1)c1cnc(OC(F)F)s1` [Compound 269], the concentration for half-maximal inhibition (IC50) was 24.9 µM.

In turn, `O=C(Nc1ccc(=O)n(CCF)c1)c1cc(Cl)n[nH]1` [Compound 154] had an IC50 of 8.08 µM.

`CCn1cc(NC(=O)c2cc(C)c(Cl)s2)ccc1=O` [Compound 65] displayed an IC50 greater than 50 µM.

As to `CCn1cc(NC(=O)c2cc(Cl)c(Cl)n2-c2ccccc2)ccc1=O` [Compound 66], the IC50 is greater than 50 µM.

In turn, `CCn1cc(NC(=O)c2cc(C#N)c(C#N)s2)ccc1=O` [Compound 181] gave an IC50 of 0.313 µM.

As to `Cc1cc(NC(=O)c2cnn(-c3cccc(Cl)c3)c2C)c[nH]c1=O` [Compound 4], the concentration for half-maximal inhibition (IC50) was greater than 50 µM.

`O=C(Nc1cc(F)c(=O)n(CCF)c1)c1cc(C#Cc2cccnc2)c(Cl)s1` [Compound 328] yielded an IC50 of 0.108 µM.

`CC(C)Cn1cc(NC(=O)c2cc(Cl)c(Cl)s2)ccc1=O` [Compound 76] displayed an IC50 greater than 50 µM.

On to `Cc1cc(C(=O)Nc2cc(F)c(=O)n(CCF)c2)on1` [Compound 250], for which the IC50 was greater than 50 µM.

`CSc1cc(C(=O)Nc2cc(F)c(=O)n(CC(F)F)c2)sc1Cl` [Compound 341] gave an IC50 of 9.28 µM.

With `Cn1ccnc1-c1ccc(C(=O)Nc2cc(F)c(=O)n(CCF)c2)s1` [Compound 316], the half-inhibitory concentration (IC50) is greater than 50 µM.

Turning to `CCn1cc(NC(=O)c2cc(C#CCN(C)C)c(Cl)s2)ccc1=O` [Compound 286], half-maximal inhibition (IC50) was put at 16.7 µM.

Compound `N#Cc1cc(NC(=O)c2cc(Cl)c(Cl)s2)cn(CCF)c1=O` [Compound 193] yielded an IC50 of 8.93 µM.

Compound `N#Cc1cc(C(=O)Nc2cc(F)c(=O)n(CCF)c2)[nH]c1Cl` [Compound 229] showed an IC50 of 1.88 µM.

As to `CCn1cc(NC(=O)c2csc(C#N)n2)ccc1=O` [Compound 199], the IC50 was greater than 50 µM.

On to `O=C(Nc1cc(F)c(=O)n(CCF)c1)c1cnc(Cl)o1` [Compound 253], for which the IC50 is greater than 50 µM.

The compound `CCn1cc(NC(=O)c2cccn2C)ccc1=O` [Compound 13] returned a half-maximal inhibitory concentration (IC50) greater than 50 µM.

The test is the same for the next values; noted with them: FL-SMARCA4 IC>50, Table 3c.2; ATPase assay, enzyme 5 nM, ATP 250 uM, chicken mononucleosome 10 nM, 30 min preincubation.
Turning to `O=C(Nc1cc(F)c(=O)n(CC(F)F)c1)[C@H]1CCCN1` [Compound 16c], the IC50 is greater than 50 µM.

As for `O=C(Nc1cc(F)c(=O)n(CC(F)F)c1)c1cc2c(s1)C(F)(F)CNC2` [Compound 114c], the IC50 is greater than 50 µM.

As for `COc1ccc(C#Cc2cc(C(=O)Nc3cc(F)c(=O)n(CC(F)F)c3)sc2Cl)cc1` [Compound 44c], it took 2.19 µM to reach half-maximal inhibition (IC50).

`O=C(Nc1cc(F)c(=O)n(CC(F)F)c1)c1cc(C#Cc2cccc(CO)c2)c(Cl)s1` [Compound 138c] registered an IC50 of 0.0657 µM.

Turning to `CN1Cc2cc(C(=O)Nc3cc(F)c(=O)n(CC(F)F)c3)sc2C(F)(F)C1` [Compound 115c], the IC50 is greater than 50 µM.

Regarding `CN1CCC(C#Cc2cc(C(=O)Nc3cc(F)c(=O)n(CC(F)F)c3)sc2Cl)CC1` [Compound 29c], the IC50 came out at 41.4 µM.

In the case of `O=C(Nc1cc(-c2ncco2)c(=O)n(CC(F)F)c1)c1sc(C(F)(F)F)cc1Cl` [Compound 30c], the IC50 is greater than 50 µM.

On to `O=C(Nc1cc(-c2ncco2)c(=O)n(CC(F)F)c1)c1cc(Cl)c(C(F)(F)F)s1` [Compound 102c], for which the IC50 was greater than 50 µM.

Turning to `O=C(Nc1cc(F)c(=O)n(CC(F)F)c1)c1cc(C#CC2CN(CC(F)(F)F)C2)c(Cl)s1` [Compound 69c], the IC50 worked out at 3.77 µM.

The target in the next test is T1, FL-SMARCA2 (full-length human SMARCA2 isoform 1) (Homo sapiens, UniProt P51531).
T1 construct: FLAG tag (YKDDDDK) (C); made in house; host or cells: Sf21 insect cells (baculovirus, pFastBacI)
T1 sequence (P51531 with tags, fused parts or gaps): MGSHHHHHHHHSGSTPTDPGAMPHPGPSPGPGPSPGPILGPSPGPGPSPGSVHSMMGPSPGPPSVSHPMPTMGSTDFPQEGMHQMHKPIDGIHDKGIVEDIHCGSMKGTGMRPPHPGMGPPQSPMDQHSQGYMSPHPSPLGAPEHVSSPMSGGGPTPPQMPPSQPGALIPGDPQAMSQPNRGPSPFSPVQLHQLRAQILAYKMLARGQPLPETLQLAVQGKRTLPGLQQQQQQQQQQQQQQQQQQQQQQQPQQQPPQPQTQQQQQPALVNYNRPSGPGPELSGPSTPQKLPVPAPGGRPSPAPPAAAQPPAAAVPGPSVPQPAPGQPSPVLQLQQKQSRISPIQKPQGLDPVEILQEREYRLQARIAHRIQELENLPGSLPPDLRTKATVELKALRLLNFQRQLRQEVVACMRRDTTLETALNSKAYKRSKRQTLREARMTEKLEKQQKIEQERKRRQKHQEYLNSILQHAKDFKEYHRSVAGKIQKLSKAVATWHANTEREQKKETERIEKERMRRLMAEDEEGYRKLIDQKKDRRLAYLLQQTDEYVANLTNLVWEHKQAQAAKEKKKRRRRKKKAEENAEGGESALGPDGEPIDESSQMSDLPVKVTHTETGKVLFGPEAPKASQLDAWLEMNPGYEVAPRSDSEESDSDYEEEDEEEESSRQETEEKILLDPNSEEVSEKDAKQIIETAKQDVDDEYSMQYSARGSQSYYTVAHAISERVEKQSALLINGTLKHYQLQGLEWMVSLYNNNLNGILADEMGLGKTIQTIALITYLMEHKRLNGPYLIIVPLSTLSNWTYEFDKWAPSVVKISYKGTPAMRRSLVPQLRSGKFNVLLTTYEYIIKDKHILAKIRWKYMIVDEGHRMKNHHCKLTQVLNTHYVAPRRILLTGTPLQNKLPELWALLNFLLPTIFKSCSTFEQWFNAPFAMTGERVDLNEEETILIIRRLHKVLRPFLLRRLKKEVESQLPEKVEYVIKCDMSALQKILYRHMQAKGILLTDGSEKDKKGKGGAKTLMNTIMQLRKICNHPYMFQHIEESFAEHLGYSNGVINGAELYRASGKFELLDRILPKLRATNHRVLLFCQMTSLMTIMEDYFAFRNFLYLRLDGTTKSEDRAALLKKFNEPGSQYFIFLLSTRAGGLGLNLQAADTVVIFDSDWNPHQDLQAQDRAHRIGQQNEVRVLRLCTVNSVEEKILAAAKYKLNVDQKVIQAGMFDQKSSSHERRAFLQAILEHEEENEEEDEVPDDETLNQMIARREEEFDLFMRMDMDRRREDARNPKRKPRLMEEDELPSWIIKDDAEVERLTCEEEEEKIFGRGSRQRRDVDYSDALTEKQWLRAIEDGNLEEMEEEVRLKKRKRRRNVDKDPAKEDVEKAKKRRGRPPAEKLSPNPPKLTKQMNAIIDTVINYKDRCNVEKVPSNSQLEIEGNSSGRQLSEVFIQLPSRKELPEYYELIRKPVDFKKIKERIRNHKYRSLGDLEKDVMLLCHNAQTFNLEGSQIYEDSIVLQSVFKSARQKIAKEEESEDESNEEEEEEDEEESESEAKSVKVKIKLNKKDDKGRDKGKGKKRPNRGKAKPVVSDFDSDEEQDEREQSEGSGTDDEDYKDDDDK
As to the kind of experiment: SMARCA2 ATPase activity assay (ADP-Glo, chicken mononucleosome substrate). The note with it: Table 3c.1; ATPase assay, enzyme 5 nM, ATP 250 uM, chicken mononucleosome 10 nM, 30 min preincubation. The class given is biochemical.
As to `O=C(Nc1cc(F)c(=O)n(CC(F)F)c1)[C@H]1CCCN1` [Compound 16c], the IC50 was greater than 50 µM.

Compound `O=C(Nc1cc(F)c(=O)n(CC(F)F)c1)c1cc2c(s1)C(F)(F)CNC2` [Compound 114c] showed an IC50 of 30.5 µM.

Consider `COc1ccc(C#Cc2cc(C(=O)Nc3cc(F)c(=O)n(CC(F)F)c3)sc2Cl)cc1` [Compound 44c], for which the half-maximal inhibitory concentration (IC50) was 1.04 µM.

`O=C(Nc1cc(F)c(=O)n(CC(F)F)c1)c1cc(C#Cc2cccc(CO)c2)c(Cl)s1` [Compound 138c] showed an IC50 of 0.0288 µM.

As for `CN1Cc2cc(C(=O)Nc3cc(F)c(=O)n(CC(F)F)c3)sc2C(F)(F)C1` [Compound 115c], the IC50 was greater than 50 µM.

`CN1CCC(C#Cc2cc(C(=O)Nc3cc(F)c(=O)n(CC(F)F)c3)sc2Cl)CC1` [Compound 29c] showed an IC50 of 25.4 µM.

Compound `O=C(Nc1cc(-c2ncco2)c(=O)n(CC(F)F)c1)c1sc(C(F)(F)F)cc1Cl` [Compound 30c] registered an IC50 greater than 50 µM.

`O=C(Nc1cc(-c2ncco2)c(=O)n(CC(F)F)c1)c1cc(Cl)c(C(F)(F)F)s1` [Compound 102c] registered an IC50 greater than 50 µM.

In turn, `O=C(Nc1cc(F)c(=O)n(CC(F)F)c1)c1cc(C#CC2CN(CC(F)(F)F)C2)c(Cl)s1` [Compound 69c] showed an IC50 of 1 µM.

Still in this test, the particulars now being: Table 3.1; ATPase assay, enzyme 5 nM, ATP 250 uM, chicken mononucleosome 10 nM, 30 min preincubation.
`CCn1nc(C(=O)Nc2ccc(=O)n(CC)c2)cc1C` [Compound 32] registered an IC50 greater than 50 µM.

On to `O=C(Nc1cc(F)c(=O)n(CC(F)F)c1)c1cc(C#Cc2cccnc2)c(Cl)s1` [Compound 329], for which the IC50 is 0.0312 µM.

`O=C(Nc1cc(F)c(=O)n(CCF)c1)c1cnc(OC(F)F)s1` [Compound 269] showed a half-inhibitory concentration (IC50) of 5.19 µM.

Take `O=C(Nc1ccc(=O)n(CCF)c1)c1cc(Cl)n[nH]1` [Compound 154]: the IC50 was determined as 1.93 µM.

On to `CCn1cc(NC(=O)c2cc(C)c(Cl)s2)ccc1=O` [Compound 65], for which the IC50 is 28.4 µM.

Turning to `CCn1cc(NC(=O)c2cc(Cl)c(Cl)n2-c2ccccc2)ccc1=O` [Compound 66], the IC50 was greater than 50 µM.

`CCn1cc(NC(=O)c2cc(C#N)c(C#N)s2)ccc1=O` [Compound 181] gave an IC50 of 0.114 µM.

As for `Cc1cc(NC(=O)c2cnn(-c3cccc(Cl)c3)c2C)c[nH]c1=O` [Compound 4], the IC50 was greater than 50 µM.

For `O=C(Nc1cc(F)c(=O)n(CCF)c1)c1cc(C#Cc2cccnc2)c(Cl)s1` [Compound 328], the IC50 amounted to 0.0384 µM.

As for `CC(C)Cn1cc(NC(=O)c2cc(Cl)c(Cl)s2)ccc1=O` [Compound 76], the IC50 is greater than 50 µM.

For the compound `Cc1cc(C(=O)Nc2cc(F)c(=O)n(CCF)c2)on1` [Compound 250], the IC50 amounted to 25.4 µM.

The compound `CSc1cc(C(=O)Nc2cc(F)c(=O)n(CC(F)F)c2)sc1Cl` [Compound 341] displayed an IC50 of 0.668 µM.

`Cn1ccnc1-c1ccc(C(=O)Nc2cc(F)c(=O)n(CCF)c2)s1` [Compound 316] yielded an IC50 greater than 50 µM.

On to `CCn1cc(NC(=O)c2cc(C#CCN(C)C)c(Cl)s2)ccc1=O` [Compound 286], for which inhibition was half-maximal at 9.49 µM (IC50).

Compound `N#Cc1cc(NC(=O)c2cc(Cl)c(Cl)s2)cn(CCF)c1=O` [Compound 193] returned a half-inhibitory concentration (IC50) of 1.23 µM.

Turning to `N#Cc1cc(C(=O)Nc2cc(F)c(=O)n(CCF)c2)[nH]c1Cl` [Compound 229], the IC50 came out at 0.602 µM.

The compound `CCn1cc(NC(=O)c2csc(C#N)n2)ccc1=O` [Compound 199] had an IC50 greater than 50 µM.

For the compound `O=C(Nc1cc(F)c(=O)n(CCF)c1)c1cnc(Cl)o1` [Compound 253], the IC50 was greater than 50 µM.

Turning to `CCn1cc(NC(=O)c2cccn2C)ccc1=O` [Compound 13], the half-inhibitory concentration (IC50) is greater than 50 µM.

(Values after patent US20220356174A1, “PYRIDIN-2-ONE COMPOUNDS USEFUL AS SMARCA2 ANTAGONISTS” (Epizyme, Inc., priority 2018, published 2022).)
